One block for each compound: values may come before it.
Molecular target: T1, CFTR (F508del/MF-HBE cells) (Homo sapiens, UniProt P13569, DEL508-508)
T1 construct: human bronchial epithelial (HBE) cells derived from CF subjects heterozygous for F508del and a minimal function CFTR mutation (F508del/MF-HBE); endogenous in cells; host or cells: Primary human bronchial epithelial cells from CF subjects (F508del/MF genotype), differentiated at an air-liquid interface
Assay: Ussing chamber assay of CFTR-mediated short-circuit currents, Assay A (0.1 μM to 25 μM, 6 concentrations)
Assay type: cell-based
Conditions: with 33 nM potentiator and 18 μM Tezacaftor, 20% human serum; for Emax: 18-24 hours, read-out: A Max activity (%)
Description: Ussing chamber experiments were performed using human bronchial epithelial (HBE) cells derived from CF subjects heterozygous for F508del and a minimal function CFTR mutation (F508del/MF-HBE) and cultured as previously described (Neuberger T, Burton B, Clark H, Van Goor F Methods Mol Biol 2011:741:39-54). After four days the apical media was removed, and the cells were grown at an air liquid interface for >14 days prior to use.
To isolate the CFTR-mediated short-circuit (ISC) current, F508del/MF-HBE grown on Costar® Snapwell™ cell culture inserts were mounted in an Ussing chamber and the transepithelial ISC was measured under voltage-clamp recording conditions (Vhold=0 mV) at 37° C. The basolateral solution contained (in mM) 145 NaCl, 0.83 K2HPO4, 3.3 KH2PO4, 1.2 MgCl2, 1.2 CaCl2, 10 Glucose, 10 HEPES (pH adjusted to 7.4 with NaOH) and the apical solution contained (in mM) 145 NaGluconate, 1.2 MgCl2, 1.2 CaCl2, 10 glucose, 10 HEPES (pH adjusted to 7.4 with NaOH) and 30 μM amiloride to block the epithelial sodium channel. Forskolin (20 μM) was added to the apical surface to activate CFTR, followed by apical addition of a CFTR inhibitor cocktail consisting of BPO, GlyH-101, and CFTR inhibitor 172 (each at 20 μM final assay concentration) to specifically isolate CFTR currents. The CFTR-mediated ISC (μA/cm^2) for each condition was determined from the peak forskolin response to the steady-state current following inhibition.
The activity of the CFTR corrector compounds on the CFTR-mediated ISC was determined in Ussing chamber studies as described above. The F508del/MF-HBE cell cultures were either incubated with the corrector compounds at a range of concentrations in combination with 33 nM (6R,12R)-17-amino-12-methyl-6,15-bis(trifluoromethyl)-13,19-dioxa-3,4,18-triazatricyclo[12.3.1.12,5]nonadeca-1(18),2,4,14,16-pentaen-6-ol and 18 μM Tezacaftor or were incubated with the corrector compounds at a single fixed concentration of 1 μM in combination with 44 nM (6R,12R)-17-amino-12-methyl-6,15-bis(trifluoromethyl)-13,19-dioxa-3,4,18-triazatricyclo[12.3.1.12,5]nonadeca-1(18),2,4,14,16-pentaen-6-ol and 18 μM Tezacaftor for 18-24 hours at 37° C. and in the presence of 20% human serum. The concentration of corrector compounds with 44 nM or 33 nM (6R,12R)-17-amino-12-methyl-6,15-bis(trifluoromethyl)-13,19-dioxa-3,4,18-triazatricyclo[12.3.1.12,5]nonadeca-1(18),2,4,14,16-pentaen-6-ol and 18 μM Tezacaftor during the 18-24 hours incubations was kept constant throughout the Ussing chamber measurement of the CFTR-mediated ISC to ensure compounds were present throughout the entire experiment. The efficacy and potency of the putative F508del correctors was compared to that of the known Vertex corrector, (14S)-8-[3-(2-{Dispiro[2.0.2.1]heptan-7-yl}ethoxy)-1H-pyrazol-1-yl]-12,12-dimethyl-2λ^6-thia-3,9,11,18,23-pentaazatetracyclo[17.3.1.111,14.05,10]tetracosa-1(22),5,7,9,19(23),20-hexaene-2,2,4-trione, in combination with 18 μM Tezacaftor and 1 μM Ivacaftor.
• Assay A: 0.1 μM to 25 μM, 6 concentrations • Assay B: 0.00001 μM to 25 μM, 12 concentrations • Assay C: 0.026 μM to 25 μM, 6 concentrations • Assay D: Activity at single concentration of 1 μM

T1 sequence (P13569 with tags, fused parts or gaps DEL508-508): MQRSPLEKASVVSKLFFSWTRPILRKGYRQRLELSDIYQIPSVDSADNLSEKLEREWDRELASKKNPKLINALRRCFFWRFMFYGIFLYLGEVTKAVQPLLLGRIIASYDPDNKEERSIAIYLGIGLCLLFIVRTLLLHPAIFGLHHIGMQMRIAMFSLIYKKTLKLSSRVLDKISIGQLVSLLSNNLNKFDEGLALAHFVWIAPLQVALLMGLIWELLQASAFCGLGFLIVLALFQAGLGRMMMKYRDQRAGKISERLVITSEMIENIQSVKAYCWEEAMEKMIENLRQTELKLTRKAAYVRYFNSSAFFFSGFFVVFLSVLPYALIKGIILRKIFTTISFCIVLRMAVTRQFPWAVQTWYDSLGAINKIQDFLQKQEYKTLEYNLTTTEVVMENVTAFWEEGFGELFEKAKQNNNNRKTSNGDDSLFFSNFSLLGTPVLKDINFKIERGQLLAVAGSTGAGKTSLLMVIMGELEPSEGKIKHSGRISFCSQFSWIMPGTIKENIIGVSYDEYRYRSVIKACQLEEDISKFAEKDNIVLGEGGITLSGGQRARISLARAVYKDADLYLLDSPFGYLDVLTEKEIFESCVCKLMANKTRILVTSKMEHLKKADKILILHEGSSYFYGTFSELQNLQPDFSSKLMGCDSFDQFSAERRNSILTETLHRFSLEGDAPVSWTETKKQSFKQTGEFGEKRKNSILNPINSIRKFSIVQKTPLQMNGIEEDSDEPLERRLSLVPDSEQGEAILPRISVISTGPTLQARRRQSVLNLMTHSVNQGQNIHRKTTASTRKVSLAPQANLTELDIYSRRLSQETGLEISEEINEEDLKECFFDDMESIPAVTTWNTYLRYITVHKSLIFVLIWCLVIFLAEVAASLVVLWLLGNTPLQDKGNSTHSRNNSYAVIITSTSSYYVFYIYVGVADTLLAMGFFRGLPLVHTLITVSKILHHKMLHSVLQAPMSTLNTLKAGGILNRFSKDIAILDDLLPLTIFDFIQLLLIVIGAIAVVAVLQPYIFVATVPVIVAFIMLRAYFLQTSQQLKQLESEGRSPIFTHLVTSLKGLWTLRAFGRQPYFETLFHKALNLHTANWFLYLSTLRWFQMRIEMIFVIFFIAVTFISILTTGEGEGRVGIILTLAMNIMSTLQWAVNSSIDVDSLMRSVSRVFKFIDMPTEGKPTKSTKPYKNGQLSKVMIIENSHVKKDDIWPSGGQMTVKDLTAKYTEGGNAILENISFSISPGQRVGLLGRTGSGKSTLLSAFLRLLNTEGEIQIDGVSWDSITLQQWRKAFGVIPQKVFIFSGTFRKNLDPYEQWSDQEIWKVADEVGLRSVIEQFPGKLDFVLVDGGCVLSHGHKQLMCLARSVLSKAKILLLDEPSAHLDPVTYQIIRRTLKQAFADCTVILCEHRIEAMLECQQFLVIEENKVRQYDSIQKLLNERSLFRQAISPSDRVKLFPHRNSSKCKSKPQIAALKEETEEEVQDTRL

SMILES: Cc1cccc(C)c1-c1cc2nc(n1)NS(=O)(=O)c1cccc(c1)C(=O)N(Cc1cn3cccc(N)c3n1)[C@H](CC(C)(C)C)CO2 [III-12]
Emax: > 60% | EC50: < 1000 nM

SMILES: Cc1cccc(C)c1-c1cc2nc(n1)NS(=O)(=O)c1cccc(c1)C(=O)N(Cc1cn3ccc(C(C)C)cc3n1)[C@H](CC(C)(C)C)CO2 [III-1, (11R)-6-(2,6-dimethylphenyl)-11-(2,2-dimethylpropyl)-12-[(7-isopropylimidazo[1,2-a]pyridin-2-yl)methyl]-2,2-dioxo-9-oxa-2λ^6-thia-3,5,12,19-tetrazatricyclo[12.3.1.14,8]nonadeca-1(18),4(19),5,7,14,16-hexaen-13-one]
Emax: > 60% | EC50: < 1000 nM

SMILES: Cc1cccc(C)c1-c1cc2nc(n1)NS(=O)(=O)c1cccc(c1)C(=O)N(Cc1cnc3oc(C(C)C)cc3n1)[C@H](CC1(C(F)(F)F)CC1)CO2 [Compound I-54]
Emax: > 60% | EC50: < 1000 nM

SMILES: Cc1cccc(C)c1-c1cc2nc(n1)NS(=O)(=O)c1cccc(c1)C(=O)N(Cc1cnc3cc(C(C)C)n(C)c3n1)[C@H](CCC(C)(C)F)CO2 [Compound I-106]
Emax: > 60% | EC50: < 1000 nM

SMILES: Cc1cccc(C)c1-c1cc2nc(n1)NS(=O)(=O)c1cccc(c1)C(=O)N(Cc1cnc3oc(C(C)C)cc3n1)[C@H](CC1C3(CC3)C13CC3)CO2 [Compound I-101]
Emax: > 60% | EC50: < 1000 nM

SMILES: Cc1cccc(C)c1-c1cc2nc(n1)NS(=O)(=O)c1cccc(c1)C(=O)N(Cc1cn3cccc(C#N)c3n1)[C@H](CC(C)(C)C)CO2 [III-10]
Emax: > 60% | EC50: < 1000 nM

SMILES: Cc1cccc(C)c1-c1cc2nc(n1)NS(=O)(=O)c1cccc(c1)C(=O)N(Cc1cnc3oc(C(C)C)cc3n1)[C@H](CCC(C)(C)F)CO2 (single isomer, unassigned) [Compound I-36]
Emax: > 60% | EC50: < 1000 nM

SMILES: Cc1cccc(C)c1-c1cc2nc(n1)NS(=O)(=O)c1cccc(c1)C(=O)N(Cc1cnc3cc(C(C)C)n(C)c3n1)[C@H](CC1C3(CC3)C13CC3)CO2 [Compound I-100]
Emax: > 60% | EC50: < 1000 nM

SMILES: Cc1cccc(C)c1-c1cc2nc(n1)NS(=O)(=O)c1cccc(c1)C(=O)N(Cc1cnc3oc(C(C)C)c(C#N)c3n1)[C@H](CC1(C)CC1)CO2 [Compound I-53, 2-[[(11R)-6-(2,6-dimethylphenyl)-11-[(1-methylcyclopropyl)methyl]-2,2,13-trioxo-9-oxa-2λ^6-thia-3,5,12,19-tetrazatricyclo[12.3.1.14,8]nonadeca-1(18),4(19),5,7,14,16-hexaen-12-yl]methyl]-6-isopropyl-furo[2,3-b]pyrazine-7-carbonitrile]
Emax: > 60% | EC50: < 1000 nM

SMILES: Cc1cccc(C)c1-c1cc2nc(n1)NS(=O)(=O)c1cccc(c1)C(=O)N(Cc1cnc3cc(C(C)C)n(C)c3n1)[C@H](C[C@@H]1CCCO1)CO2 (stereo in doubt) [Compound I-16]
Emax: > 60% | EC50: < 1000 nM

SMILES: Cc1cccc(C)c1-c1cc2nc(n1)NS(=O)(=O)c1cccc(c1)C(=O)N(Cc1nc3c(cc1F)cc(C(C)C)n3C)[C@H](CC(C)(C)C)CO2 [Compound I-6]
Emax: > 60% | EC50: < 1000 nM

SMILES: Cc1cccc(C)c1-c1cc2nc(n1)NS(=O)(=O)c1cccc(c1)C(=O)N(Cc1cnc3oc(C(C)C)cc3n1)[C@H](CC1CCCO1)CO2 (single isomer, unassigned) [Compound I-18]
Emax: > 60% | EC50: < 1000 nM

SMILES: Cc1cccc(C)c1-c1cc2nc(n1)NS(=O)(=O)c1cccc(c1)C(=O)N(Cc1cnc3oc(C(C)C)c(C)c3n1)[C@H](CCC(C)C)CO2 [Compound I-19]
Emax: > 60% | EC50: < 1000 nM

SMILES: Cc1cccc(C)c1-c1cc2nc(n1)NS(=O)(=O)c1cccc(c1)C(=O)N(Cc1cnc3oc(C(C)C)cc3n1)[C@H](CC(C)(C)F)CO2 [Compound I-35]
Emax: > 60% | EC50: < 1000 nM

SMILES: Cc1cccc(C)c1-c1cc2nc(n1)NS(=O)(=O)c1cccc(c1)C(=O)N(Cc1cnc3cc(C(C)C)n(C)c3n1)[C@H](CCC1(C)CCC1)CO2 [Compound I-41]
Emax: > 60% | EC50: < 1000 nM

SMILES: Cc1cccc(C)c1-c1cc2nc(n1)NS(=O)(=O)c1cccc(c1)C(=O)N(Cc1cnc3oc(C(C)C)c(C)c3n1)[C@@H](COC1CCC1)CO2 (stereo in doubt) [Compound I-93]
Emax: > 60% | EC50: < 1000 nM

The remaining lines, values ahead:

Emax: > 60% | EC50: < 1000 nM
SMILES: Cc1cccc(C)c1-c1cc2nc(n1)NS(=O)(=O)c1cccc(c1)C(=O)N(Cc1cnc3oc(C4CC4)cc3n1)[C@H](CC1(C)CC1)CO2 [Compound I-25]

Emax: > 60% | EC50: < 1000 nM
SMILES: Cc1cccc(C)c1-c1cc2nc(n1)NS(=O)(=O)c1cccc(c1)C(=O)N(Cc1cnc3nc(C(C)C)n(C)c3n1)[C@H](CC1(C)CC1)CO2 [Compound I-75]

Emax: > 60% | EC50: < 1000 nM
SMILES: Cc1cccc(C)c1-c1cc2nc(n1)NS(=O)(=O)c1cccc(c1)C(=O)N(Cc1cnc3oc(C(C)C)c(C)c3n1)[C@H](CCC(C)(C)C)CO2 [Compound I-11]

Emax: > 60% | EC50: < 1000 nM
SMILES: Cc1cccc(C)c1-c1cc2nc(n1)NS(=O)(=O)c1cccc(c1)C(=O)N(Cc1cnc3oc(C(C)C)cc3n1)[C@H](CCC(C)C)CO2 [Compound I-2]

Emax: > 60% | EC50: < 1000 nM
SMILES: Cc1cccc(C)c1-c1cc2nc(n1)NS(=O)(=O)c1cccc(c1)C(=O)N(Cc1cnc3oc(C(C)C)cc3n1)[C@H](CC(C)C)CO2 [Compound I-1]

Emax: > 60% | EC50: < 1000 nM
SMILES: Cc1cccc(C)c1-c1cc2nc(n1)NS(=O)(=O)c1cccc(c1)C(=O)N(Cc1cnc3oc(C4CC4)cc3n1)[C@H](CCC(C)(C)F)CO2 [Compound I-107]

Emax: > 60% | EC50: < 1000 nM
SMILES: Cc1cccc(C)c1-c1cc2nc(n1)NS(=O)(=O)c1cccc(c1)C(=O)N(Cc1nc3cc(C(C)C)oc3cc1F)[C@H](CC1(C)CC1)CO2 [Compound I-78]

Emax: > 60% | EC50: < 1000 nM
SMILES: Cc1cccc(C)c1-c1cc2nc(n1)NS(=O)(=O)c1cccc(c1)C(=O)N(Cc1cnc3oc(C(C)C)cc3n1)[C@H](CC1CCCCC1)CO2 [Compound I-9]

Emax: > 60% | EC50: < 1000 nM
SMILES: Cc1cccc(C)c1-c1cc2nc(n1)NS(=O)(=O)c1cccc(c1)C(=O)N(Cc1nc3c(cc1F)cc(C(C)C)n3C)[C@@H](COC1CCC1)CO2 (stereo in doubt) [Compound I-84]

Emax: > 60% | EC50: < 1000 nM
SMILES: Cc1cccc(C)c1-c1cc2nc(n1)NS(=O)(=O)c1cccc(c1)C(=O)N(Cc1cnc3oc(C(C)C)c(C)c3n1)[C@H](CC(C)(C)C)CO2 [Compound I-4]

Emax: > 60% | EC50: < 1000 nM
SMILES: Cc1cccc(C)c1-c1cc2nc(n1)NS(=O)(=O)c1cccc(c1)C(=O)N(Cc1cnc3oc(C4CC4)cc3n1)[C@H](C[C@H]1CCCCO1)CO2 (stereo in doubt) [Compound I-44]

Emax: > 60% | EC50: < 1000 nM
SMILES: Cc1cccc(C)c1-c1cc2nc(n1)NS(=O)(=O)c1cccc(c1)C(=O)N(Cc1cnc3oc(C(C)C)c(C)c3n1)[C@H](COC(C)C)CO2 [Compound I-10]

Emax: > 60% | EC50: < 1000 nM
SMILES: Cc1cccc(C)c1-c1cc2nc(n1)NS(=O)(=O)c1cccc(c1)C(=O)N(Cc1cnc3cc(C(C)C)n(C)c3n1)[C@H](CC13CC(C1)C3)CO2 [Compound I-40]

Emax: 30 to 60% | EC50: 1000 to 3000 nM
SMILES: Cc1cccc(C)c1-c1cc2nc(n1)NS(=O)(=O)c1cccc(c1)CN(C(=O)c1cncc(N(C)C3CCC3)n1)[C@H](CC(C)(C)C)CO2 [II-36]

— patent US20250340574A1, “MODULATORS OF CYSTIC FIBROSIS TRANSMEMBRANE CONDUCTANCE REGULATOR” (Vertex Pharmaceuticals Incorporated, priority 2022, published 2025)
